Reference: patent publication US7205410B2, “4-(aminomethyl)-piperidine benzamides for treating gastrointestinal disorders” (Janssen Pharmaceutica, N.V., priority 1998, dated 2007)

How the values were obtained:
[1] = molecular target: T1, 5HT4 (Rattus norvegicus, UniProt Q62758); assay: 5HT4 antagonism in rat oesophageal tunica muscularis mucosae; format: cell-based; conditions: 5HT4 antagonistic data, isolated rat oesophageal tunica muscularis mucosae, method of Baxter et al.; for Kb: read-out: pA2 (converted)
T1 construct: 5HT4 Antagonism in Rat Oesophageal Tunica Muscularis Mucosae; from tissue; host or cells: rat oesophageal tunica muscularis mucosae
Method: 5HT4 Antagonism in Rat Oesophageal Tunica Muscularis Mucosae
The 5HT4 antagonistic potence of the present compounds was measured as described in Baxter G. S. et. al, Naunyn-Schmiedeberg's Arch. Pharmacol., 343, 439-446 ([…]).
The pA2 value is calculated as follows: [formula]

T1 sequence (Q62758 whole entry): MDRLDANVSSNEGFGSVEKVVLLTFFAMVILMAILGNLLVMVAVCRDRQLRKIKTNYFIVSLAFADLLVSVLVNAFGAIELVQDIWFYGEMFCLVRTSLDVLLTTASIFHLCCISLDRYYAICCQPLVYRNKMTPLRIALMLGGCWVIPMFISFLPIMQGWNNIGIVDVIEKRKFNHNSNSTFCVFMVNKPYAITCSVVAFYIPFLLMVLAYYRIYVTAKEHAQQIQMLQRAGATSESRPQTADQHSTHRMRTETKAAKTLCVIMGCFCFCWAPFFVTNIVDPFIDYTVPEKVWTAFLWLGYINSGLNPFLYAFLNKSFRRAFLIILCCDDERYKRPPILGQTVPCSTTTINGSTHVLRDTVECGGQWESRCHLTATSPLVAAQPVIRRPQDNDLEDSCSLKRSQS

| Structure (SMILES) | pA2 [1] | other results |
| --- | --- | --- |
| CCCCN1CC[C@@H](CNC(=O)c2cc(Cl)cc3c2OCCO3)[C@H](O)C1 (racemic) [Compound 64, (±)-(trans)-N-[(1-butyl-3-hydroxy-4-piperidinyl)methyl]-7-chloro-2,3-dihydro-1,4-benzodioxin-5-carboxamide] |  | Kb [1]: 0.1 nM; melting point: 112 °C |
| CC(=O)CCCN1CC[C@@H](CNC(=O)c2cc(Cl)cc3c2OCCO3)[C@H](O)C1 (racemic) [Compound 65, (±)-(trans)-7-chloro-2,3 dihydro-N-[[3-hydroxy-1-(4-oxopentyl)-4-piperidinyl]methyl]-1,4-benzodioxin-5-carboxamide] |  | Kb [1]: 0.363 nM |
| COCCCN1CC[C@@H](CNC(=O)c2cc(Cl)cc3c2OCCO3)[C@H](O)C1 (racemic) [Compound 67, (±)-(trans)-7-chloro-2,3-dihydro-N-[[3-hydroxy-1-(3-methoxy-propyl)-4-piperidinyl]methyl]-1,4-benzodioxin-5-carboxamide] |  | Kb [1]: 0.372 nM |
| Cc1nccnc1NCCCN1CC[C@@H](CNC(=O)c2cc(Cl)cc3c2OCCO3)[C@H](O)C1 (racemic) [Compound 84, (±)-(trans)-7-chloro-2,3-dihydro-N-[[3-hydroxy-1-[3-[(3-methyl-2-pyrazinyl)amino]propyl]-4-piperidinyl]methyl]-1,4-benzodioxin-5-carboxamide] |  | Kb [1]: 0.0282 nM |
| O=C(NC[C@@H]1CCN(CCNc2nccc(O)n2)C[C@H]1O)c1cc(Cl)cc2c1OCCO2 (relative stereo) [Compound 85, (trans)-7-chloro-2,3-dihydro-N-[[3-hydroxy-1-[2-[(4-hydroxy-2 pyrimidinyl)amino]-ethyl]-4-piperidinyl]methyl]-1,4-benzodioxin-5-carboxamide monohydrate] |  | Kb [1]: 0.302 nM |
| CCCCN1CCC(CNC(=O)c2cc(Cl)cc3c2OCC3)C(O)C1 (stereo not shown) [Compound 1] | 8.53 |  |
| CCCCN1CCC(CNC(=O)c2cc(Cl)cc3c2OCC3)C(O)C1 (stereo not shown) [Compound 2] | 10.5 |  |
| COCCCN1CCC(CNC(=O)c2cc(Cl)cc3c2OCC3)C(O)C1 (stereo not shown) [Compound 3] | 8.07 |  |
| O=C(NCC1CCN(Cc2ccccc2)CC1O)c1cc(Cl)cc2c1OCC2 (stereo not shown) [Compound 11] | 8.76 |  |
| O=C(NCC1CCN(Cc2ccccc2)CC1O)c1cc(Cl)cc2c1OCC2 (stereo not shown) [Compound 12] | 10.2 |  |
| O=C(NCC1CCN(CCCOc2ccc(F)cc2)CC1O)c1cc(Cl)cc2c1OCC2 (stereo not shown) [Compound 13] | 8.35 |  |
| O=C(NCC1CCN(CCCOc2ccc(F)cc2)CC1O)c1cc(Cl)cc2c1OCC2 (stereo not shown) [Compound 14] | 9.2 |  |
| O=C(CN1CCC(CNC(=O)c2cc(Cl)cc3c2OCC3)C(O)C1)c1ccccc1 (stereo not shown) [Compound 15] | 8.4 |  |
| CS(=O)(=O)NCCN1CCC(CNC(=O)c2cc(Cl)cc3c2OCC3)C(O)C1 (stereo not shown) [Compound 17] | 9.6 |  |
| O=C(NCC1CCN(CCOCCO)CC1O)c1cc(Cl)cc2c1OCC2 (stereo not shown) [Compound 29] | 9.6 |  |
| COC(=O)CCCN1CCC(CNC(=O)c2cc(Cl)cc3c2OCC3)C(O)C1 (stereo not shown) [Compound 31] | 9.4 |  |
| Cl.O=C(O)CCCN1CCC(CNC(=O)c2cc(Cl)cc3c2OCC3)C(O)C1 (stereo not shown) [Compound 32] | <8 |  |
| CCCCN1CCC(CNC(=O)c2cc(Cl)cc3c2OCCC3)C(O)C1 (stereo not shown) [Compound 36] | 9.8 |  |
| O=C(NCC1CCN(CCCO)CC1O)c1cc(Cl)cc2c1OCCC2 (stereo not shown) [Compound 39] | 9.81 |  |
| O=C(NCC1CCN(Cc2ccccc2)CC1O)c1cc(Cl)cc2c1OCCC2 (stereo not shown) [Compound 41] | 9.7 |  |
| O=C(CN1CCC(CNC(=O)c2cc(Cl)cc3c2OCCC3)C(O)C1)c1ccccc1.O=C(O)C(=O)O (stereo not shown) [Compound 42] | 9.5 |  |
| O=C(NCC1CCN(CCCOc2ccc(F)cc2)CC1O)c1cc(Cl)cc2c1OCCC2 (stereo not shown) [Compound 43] | 9.8 |  |
| O=C(NCC1CCN(CCOCCO)CC1O)c1cc(Cl)cc2c1OCCC2.O=C(O)C(=O)O (stereo not shown) [Compound 52] | 9.5 |  |

| Structure (SMILES) | pA2 [1] | other results |
| --- | --- | --- |
| COC(=O)CCCN1CCC(CNC(=O)c2cc(Cl)cc3c2OCCC3)C(O)C1 (stereo not shown) [Compound 53] | 9.5 |  |
| Cl.O=C(O)CCCN1CCC(CNC(=O)c2cc(Cl)cc3c2OCCC3)C(O)C1 (stereo not shown) [Compound 54] | 9.8 |  |
| CCCCN1CCC(CNC(=O)c2cc(Cl)cc3c2OCCO3)C(O)C1.O=C(O)C(=O)O (stereo not shown) [Compound 63] | 9.49 |  |
| COCCCN1CCC(CNC(=O)c2cc(Cl)cc3c2OCCO3)C(O)C1.O=C(O)C(=O)O (stereo not shown) [Compound 66] | 9.26 |  |
| O=C(NCC1CCN(CCCO)CC1O)c1cc(Cl)cc2c1OCCO2 (stereo not shown) [Compound 68] | 9.04 |  |
| N#CCCCN1CCC(CNC(=O)c2cc(Cl)cc3c2OCCO3)C(O)C1.O=C(O)C(=O)O (stereo not shown) [Compound 74] | 9.22 |  |
| O=C(NCC1CCN(Cc2ccccc2)CC1O)c1cc(Cl)cc2c1OCCO2 (stereo not shown) [Compound 77] | 9.19 |  |
| O=C(CN1CCC(CNC(=O)c2cc(Cl)cc3c2OCCO3)C(O)C1)c1ccccc1.O=C(O)C(=O)O (stereo not shown) [Compound 78] | 8.44 |  |
| O=C(NCC1CCN(CCCOc2ccc(F)cc2)CC1O)c1cc(Cl)cc2c1OCCO2 (stereo not shown) [Compound 79] | 7.93 |  |
| O=C(NCC1CCN(CCCOc2ccc(F)cc2)CC1O)c1cc(Cl)cc2c1OCCO2.O=C(O)C(=O)O (stereo not shown) [Compound 80] | 8.83 |  |
| CCCCN1CCC(CNC(=O)c2cc(Cl)cc3c2OCCO3)C(OC)C1.O=C(O)C(=O)O (stereo not shown) [Compound 86] | 8.2 |  |
| COCCCN1CCC(CNC(=O)c2cc(Cl)cc3c2OCCO3)C(OC)C1.O=C(O)C(=O)O (stereo not shown) [Compound 87] | 8.46 |  |
| COC1CN(CCCOc2ccc(F)cc2)CCC1CNC(=O)c1cc(Cl)cc2c1OCCO2.O=C(O)C(=O)O (stereo not shown) [Compound 88] | 9.2 |  |
| COC1CN(Cc2ccccc2)CCC1CNC(=O)c1cc(Cl)cc2c1OCCO2 (stereo not shown) [Compound 89] | <8 |  |
| Cl.O=C(NCC1CCN(CCOCCO)CC1O)c1cc(Cl)cc2c1OCCO2 (stereo not shown) [Compound 92] | 9.7 |  |
| COC(=O)CCCN1CCC(CNC(=O)c2cc(Cl)cc3c2OCCO3)C(O)C1 (stereo not shown) [Compound 93] | 9.4 |  |
| Cl.O=C(O)CCCN1CCC(CNC(=O)c2cc(Cl)cc3c2OCCO3)C(O)C1 (stereo not shown) [Compound 94] | 9.24 |  |
| CCCCN1CCC(O)(CNC(=O)c2cc(Cl)cc3c2OCCO3)CC1.Cl [Compound 100] | <8 |  |
| COCCCN1CCC(O)(CNC(=O)c2cc(Cl)cc3c2OCCO3)CC1.O=C(O)C(=O)O [Compound 101] | <7 |  |
| CS(=O)(=O)CCCN1CCC(O)(CNC(=O)c2cc(Cl)cc3c2OCCO3)CC1 [Compound 103] | <8 |  |
| CC(=O)CCCN1CCC(O)(CNC(=O)c2cc(Cl)cc3c2OCCO3)CC1 [Compound 106] | <8 |  |
| O=C(NCC1(O)CCN(CCOCCO)CC1)c1cc(Cl)cc2c1OCCO2.O=C(O)/C=C\C(=O)O [Compound 107] | <8 |  |
| CC(C)n1ccn(CCN2CCC(O)(CNC(=O)c3cc(Cl)cc4c3OCCO4)CC2)c1=O.O=C(O)C(=O)O [Compound 116] | ˜8 |  |

| Structure (SMILES) | pA2 [1] | other results |
| --- | --- | --- |
| O=C(NCC1(O)CCN(CCC2OCCCO2)CC1)c1cc(Cl)cc2c1OCCO2 [Compound 117] | <8 |  |
| CCCCN1CCC(CNC(=O)c2cc(Cl)cc3c2OCCCO3)C(O)C1 (stereo not shown) [Compound 119] | 10.65 |  |
| COCCCN1CCC(CNC(=O)c2cc(Cl)cc3c2OCCCO3)C(O)C1 (stereo not shown) [Compound 120] | 9.72 |  |
| CC(=O)CCCN1CCC(CNC(=O)c2cc(Cl)cc3c2OCCCO3)C(O)C1 (stereo not shown) [Compound 121] | 9.9 |  |
| N#CCCCN1CCC(CNC(=O)c2cc(Cl)cc3c2OCCCO3)C(O)C1 (stereo not shown) [Compound 126] | 9.78 |  |
| COCCCN1CCC(CNC(=O)c2cc(Cl)cc3c2OCCCO3)C(OC)C1.O=C(O)C(=O)O (stereo not shown) [Compound 129] | >8 |  |
| CCCCN1CCC(CNC(=O)c2cc(Cl)cc3c2OCCCO3)C(OC)C1.O=C(O)C(=O)O (stereo not shown) [Compound 130] | 8.5 |  |
| CCCCN1CCC(CNC(=O)c2cc(Cl)cc3c2OCCCO3)C(OC)C1.O=C(O)C(=O)O (stereo not shown) [Compound 131] | 9.5 |  |
| COC1CN(Cc2ccccc2)CCC1CNC(=O)c1cc(Cl)cc2c1OCCCO2 (stereo not shown) [Compound 132] | 8.5 |  |
| COC1CN(CCCC(C)=O)CCC1CNC(=O)c1cc(Cl)cc2c1OCCCO2.O=C(O)C(=O)O (stereo not shown) [Compound 135] | 8.1 |  |
| COC1CN(CCCC(C)=O)CCC1CNC(=O)c1cc(Cl)cc2c1OCCCO2.O=C(O)C(=O)O (stereo not shown) [Compound 139] | 8.6 |  |
| O=C(NCC1CCN(CCCO)CC1O)c1cc(Cl)cc2c1OCCCO2 (stereo not shown) [Compound 144] | 10.4 |  |
| Cl.O=C(O)CCCN1CCC(CNC(=O)c2cc(Cl)cc3c2OCCCO3)C(O)C1 (stereo not shown) [Compound 146] | 9.1 |  |
| N#CCCCN1CCC(O)(CNC(=O)c2cc(Cl)cc3c2OCCCO3)CC1.O=C(O)C(=O)O [Compound 167] | <8 |  |
| COCCCN1CCC(O)(CNC(=O)c2cc(Cl)cc3c2OCCCO3)CC1.O=C(O)C(=O)O [Compound 168] | <8 |  |
| CS(=O)(=O)CCCN1CCC(O)(CNC(=O)c2cc(Cl)cc3c2OCCCO3)CC1.O [Compound 169] | <8 |  |
| CCCCN1CCC(O)(CNC(=O)c2cc(Cl)cc3c2OCCCO3)CC1.O=C(O)C(=O)O [Compound 171] | <8 |  |
| CC(=O)CCCN1CCC(O)(CNC(=O)c2cc(Cl)cc3c2OCCCO3)CC1.O [Compound 180] | ˜7.5 |  |
| CCCCN1CCC(CNC(=O)c2cc(Cl)cc3c2OCCCCO3)C(O)C1.O (stereo not shown) [Compound 182] | 9.4 |  |
| N#CCCCN1CCC(CNC(=O)c2cc(Cl)cc3c2OCCCCO3)C(O)C1.O=C(O)C(=O)O (stereo not shown) [Compound 188] | 10.5 |  |
| O=C(NCC1CCN(CCOCCO)CC1O)c1cc(Cl)cc2c1OCCCCO2 (stereo not shown) [Compound 190] | 8.3 |  |
| O=C(NCC1CCN(CCCO)CC1O)c1cc(Cl)cc2c1OCCCCO2 (stereo not shown) [Compound 192] | 10.1 |  |
| Cl.O=C(O)CCCN1CCC(CNC(=O)c2cc(Cl)cc3c2OCCCCO3)C(O)C1 (stereo not shown) [Compound 194] | 9 |  |
